# Assay results: PubChem BioAssay AID2060626 (Molecular Pharmacology Branch, DTP, NCI, 2025)
# Tested on: 168753-222-R-J1-PDC complex spheroid viability
# Test: Anticancer human tumor 168753-222-R-J1-PDC patient-derived bladder carcinoma cell line growth inhibition [CLK]
# Details: for IC50: curve of first compound; for viability, T/C: stronger effect = lower value
# Excerpt: A high-throughput screen of multi-cell type tumor spheroids was designed to identify active combinations of […] and targeted small molecules. Complex spheroids include a stromal component modeled by human endothelial cells (HUVEC) and fibroblasts modeled by human mesenchymal stem cells (MSCs). The concentration ranges selected for each drug and investigational agent were based upon clinically achievable concentrations if the clinical Cmax of the agent was known.
# Compounds. The drugs and investigational agents: cirtuvivint (SM08502; NSC835563), CC-671 (NSC850746), vemurafenib (NSC761431), tapotoclax (NSC804041), sotorasib (NSC818433), adagrasib (NSC831453), MRTX-1133 (NSC836407), BAY2416964 (NSC825713), copanlisib (NSC816437), inavolisib (NSC800729), abemaciclib (NSC768073), osimertinib (NSC779217), entinostat (NSC756642), eltanexor (KPT-8602, NSC794443), venetoclax (NSC766270), ceralasertib (NSC777638), bortezomib (NSC756655), olaparib (NSC753686), talazoparib (NSC767125), alisertib (NSC759677), peposertib (NSC802822), gemcitabine (NSC613327), 5-fluorouracil (NSC19893), SN-38 (NSC673596), oxaliplatin (NSC266046), paclitaxel (NSC125973), and doxorubicin (NSC123127), were obtained from the National Cancer Institute (NCI) Developmental Therapeutics Program Chemical Repository. The FDA-approved anticancer drug set is available from the Developmental Therapeutics Program at https://dtp.cancer.gov/organization/dscb/obtaining/available plates.htm. […] The stock solutions were prepared in dimethyl sulfoxide (DMSO, Sigma-Aldrich, St. Louis, MO, cat. D2650), except for the platinum complexes which were prepared in saline (Quality Biological, Gaithersburg, MD, cat. 114-055-101), at 800-fold the tested concentration and stored at -70 degrees C prior to their use. All drugs and investigational agents were tested over a range starting from a high concentration at or near the clinical Cmax and decreasing in half-log increments. If the clinical Cmax for an agent had not been determined, the highest concentration tested was 10 microM.
# Cell Culture. All cells were maintained in an incubator at 37 degrees C and 5% CO2 with 95% humidity. The PDC lines were cultured according to standard operating procedures established by the NCI PDMR. Briefly, all PDCs were thawed and cultured in Matrigel-coated flasks prepared with a working solution of 1X Ham's F-12 nutrient mix, without supplementation (Invitrogen, Waltham, MA, cat. 11765054), 100 U/mL penicillin-streptomycin (Invitrogen, cat. 15140122), and 2.5% Matrigel (Corning Inc., Corning, NY, cat. 354248) for the first three passages. The 947758-054-R-J2-PDC line was cultured in 6B/Colon 1A media, which includes advanced DMEM/F-12 (Thermo Fisher Scientific, cat. 12634028), 10 mM HEPES (Thermo Fisher Scientific, cat. 15630080), 1X GlutaMAX supplement (Thermo Fisher Scientific, cat. 35050061), 0.1 mg/mL primocin (InvivoGen, cat. ant-pm-2), 10% defined fetal bovine serum, heat inactivated (HyClone Laboratories Inc., cat. SH30070.03HI), 1.25 mM N-Acetyl-L-cysteine (Sigma-Aldrich, cat. A9165), 10 mM nicotinamide (Sigma-Aldrich, cat. N0636), 1X B-27 supplement (Thermo Fisher Scientific, cat. 17504044), 1X N-2 supplement (Thermo Fisher Scientific, cat. 17502048), and 10 microM Y-27632 dihydrochloride (Tocris Bioscience, cat. 1254). The 876862-298-R-J1-PDC was cultured in 6E media, which includes all 6B/Colon 1A media components plus 50% L-WRN conditioned media (ATCC, cat. CRL-3276), 50 ng/mL recombinant human EGF recombinant protein (hEGF; Thermo Fisher Scientific, cat. PHG0311), 10 ng/mL recombinant human fibroblast growth factor 10 (hGFG-10; PeproTech, cat. 100-26), 1 ng/mL recombinant human fibroblast growth factor 2 (hFGF-2; PeproTech, cat. 100-18B), and 1 µM prostaglandin E2 (PGE2; Tocris, cat. 2296). The 227483-062-R1-J1-PDC line was cultured in Panc media, containing all 6E components except hFGF-2, with the addition of 500 nM SB-431542 (Selleckchem, cat. S1067) and 10 nM gastrin (Tocris, cat. 3006). […]
# [1] = second compound 0.0316 µM, first compound 0.0316 µM
# [2] = second compound 0.0316 µM, first compound 0.1 µM
# [3] = second compound 0.0316 µM, first compound 0.316 µM
# [4] = second compound 0.0316 µM, first compound 1 µM
# [5] = second compound 0.0316 µM, first compound 3.16 µM
# [6] = second compound 0.0316 µM, first compound 10 µM
# [7] = second compound 0.1 µM, first compound 0.0316 µM
# [8] = second compound 0.1 µM, first compound 0.1 µM
# [9] = second compound 0.1 µM, first compound 0.316 µM
# [10] = second compound 0.1 µM, first compound 1 µM
# [11] = second compound 0.1 µM, first compound 3.16 µM
# [12] = second compound 0.1 µM, first compound 10 µM
# [13] = second compound 0.316 µM, first compound 0.0316 µM
# [14] = second compound 0.316 µM, first compound 0.1 µM
# [15] = second compound 0.316 µM, first compound 0.316 µM
# [16] = second compound 0.316 µM, first compound 1 µM
# [17] = second compound 0.316 µM, first compound 3.16 µM
# [18] = second compound 0.316 µM, first compound 10 µM
# [19] = second compound 1 µM, first compound 0.0316 µM
# [20] = second compound 1 µM, first compound 0.1 µM
# [21] = second compound 1 µM, first compound 0.316 µM
# [22] = second compound 1 µM, first compound 1 µM
# [23] = second compound 1 µM, first compound 3.16 µM
# [24] = second compound 1 µM, first compound 10 µM
# [25] = second compound 3.16 µM, first compound 0.0316 µM
# [26] = second compound 3.16 µM, first compound 0.1 µM
# [27] = second compound 3.16 µM, first compound 0.316 µM
# [28] = second compound 3.16 µM, first compound 1 µM
# [29] = second compound 3.16 µM, first compound 3.16 µM
# [30] = second compound 3.16 µM, first compound 10 µM
# [31] = second compound 10 µM, first compound 0.0316 µM
# [32] = second compound 10 µM, first compound 0.1 µM
# [33] = second compound 10 µM, first compound 0.316 µM
# [34] = second compound 10 µM, first compound 1 µM
# [35] = second compound 10 µM, first compound 3.16 µM
# [36] = second compound 10 µM, first compound 10 µM
# 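Further: viability measured after seven days of drug exposure.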
# 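Wherever viability, T/C is given: luminescence signal used as surrogate for viable cell amount; 100% = DMSO vehicle control wells.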
structure (smiles),measurement,setting,value
CCCS(=O)(=O)Nc1ccc(F)c(C(=O)c2c[nH]c3ncc(-c4ccc(Cl)cc4)cc23)c1F + CN1CCN(c2cc(C(=O)Nc3cc4cc(-c5cnn(C)c5)ccc4cn3)ccn2)CC1,IC50,second compound 0.0316 µM,> 10000 nM
same,IC50,second compound 0.1 µM,7830 nM
same,IC50,second compound 0.316 µM,< 31.6 nM
same,IC50,second compound 1 µM,< 31.6 nM
same,IC50,second compound 3.16 µM,< 31.6 nM
same,IC50,second compound 10 µM,< 31.6 nM
same,"viability, T/C",[1],96.7%
same,"viability, T/C",[2],116%
same,"viability, T/C",[3],112%
same,"viability, T/C",[4],122%
same,"viability, T/C",[5],112%
same,"viability, T/C",[6],59.5%
same,"viability, T/C",[7],80.1%
same,"viability, T/C",[8],94.7%
same,"viability, T/C",[9],58.3%
same,"viability, T/C",[10],88.5%
same,"viability, T/C",[11],86.5%
same,"viability, T/C",[12],41.5%
same,"viability, T/C",[13],15.8%
same,"viability, T/C",[14],17.8%
same,"viability, T/C",[15],16%
same,"viability, T/C",[16],14.7%
same,"viability, T/C",[17],20.1%
same,"viability, T/C",[18],22.1%
same,"viability, T/C",[19],0.38%
same,"viability, T/C",[20],0.46%
same,"viability, T/C",[21],0.31%
same,"viability, T/C",[22],0.33%
same,"viability, T/C",[23],0.96%
same,"viability, T/C",[24],2.48%
same,"viability, T/C",[25],0.11%
same,"viability, T/C",[26],1.81%
same,"viability, T/C",[27],0.12%
same,"viability, T/C",[28],0.11%
same,"viability, T/C",[29],2.3%
same,"viability, T/C",[30],1.36%
same,"viability, T/C",[31],0.16%
same,"viability, T/C",[32],2.21%
same,"viability, T/C",[33],0.61%
same,"viability, T/C",[34],0.3%
same,"viability, T/C",[35],3.61%
same,"viability, T/C",[36],3.12%
COC1C=CCC(C)C(C)S(=O)(=O)NC(=O)c2ccc3c(c2)N(CC2CCC21)CC1(CCCc2cc(Cl)ccc21)CO3 (centres undefined) + CN1CCN(c2cc(C(=O)Nc3cc4cc(-c5cnn(C)c5)ccc4cn3)ccn2)CC1,IC50,second compound 0.0316 µM,936 nM
same,IC50,second compound 0.1 µM,191 nM
same,IC50,second compound 0.316 µM,< 31.6 nM
same,IC50,second compound 1 µM,< 31.6 nM
same,IC50,second compound 3.16 µM,< 31.6 nM
same,IC50,second compound 10 µM,< 31.6 nM
same,"viability, T/C",[1],77.2%
same,"viability, T/C",[2],101%
same,"viability, T/C",[3],68.9%
same,"viability, T/C",[4],48.4%
same,"viability, T/C",[5],27.6%
same,"viability, T/C",[6],14.2%
same,"viability, T/C",[7],67.5%
same,"viability, T/C",[8],58.4%
same,"viability, T/C",[9],43.9%
same,"viability, T/C",[10],21.8%
same,"viability, T/C",[11],18%
same,"viability, T/C",[12],12.6%
same,"viability, T/C",[13],17.1%
same,"viability, T/C",[14],12.4%
same,"viability, T/C",[15],13.3%
same,"viability, T/C",[16],8.91%
same,"viability, T/C",[17],9.07%
same,"viability, T/C",[18],3.48%
same,"viability, T/C",[19],0.33%
same,"viability, T/C",[20],3.47%
same,"viability, T/C",[21],0.21%
same,"viability, T/C",[22],0.82%
same,"viability, T/C",[23],2.3%
same,"viability, T/C",[24],1.79%
same,"viability, T/C",[25],0.17%
same,"viability, T/C",[26],0.15%
same,"viability, T/C",[27],3.67%
same,"viability, T/C",[28],0.12%
same,"viability, T/C",[29],0.15%
same,"viability, T/C",[30],0.59%
same,"viability, T/C",[31],0.4%
same,"viability, T/C",[32],0.21%
same,"viability, T/C",[33],2.52%
same,"viability, T/C",[34],0.21%
same,"viability, T/C",[35],0.23%
same,"viability, T/C",[36],1.62%
